Results published in US20120076776A1, “METHOD FOR TREATING INFLAMATION BY LYMPHOCYTE DEPLETION OR SEQUESTERING” (priority 2010, published 2012).

Experiments:
renal transplant IRI = details: rat, in vivo; cited from earlier work
IRI = details: various animal models; cited from earlier work
[1] = tested on: immune-related genes in liver tissue; assay: QRT-PCR gene transcript expression in liver tissue at necropsy; details: FTY720 n=7 vs control n=5
peripheral neutrophils = assay: Peripheral neutrophil counts during hemorrhage and reperfusion; assay type: in vivo, Yorkshire (Sus scrofa domestica) swine; details: FTY720 0.3 mg/kg; reperfusion period
Experimental: All functional laboratory assays were performed at 37° C., consistent with recorded normothermic animal temperatures (37.5±0.9° C.). Blood samples were collected at 0, 15, 30, 60, 90, and 120 minutes during the hemorrhage period and at 18, 24, 36, 48, and 72 hours during the survival period. Complete blood count with differentiation was performed with a cell counter (NDvia120 Hematology System, Siemens, Deerfield, Ill.).
Blood samples were collected at 0, 15, 30, 60, 90, and 120 minutes during the hemorrhage period and at 18, 24, 36, 48, and 72 hours during the survival period. Complete blood counts with differentiation were obtained using a cell counter (NDvia120 Hematology System, Siemens, Deerfield, Ill.).

[2] = tested on: lung tissue neutrophils (MPO+); assay: MPO immunohistochemistry of lung tissue at necropsy; assay type: in vivo, Yorkshire (Sus scrofa domestica) swine; details: FTY720 0.3 mg/kg
Experimental: Immunohistochemical detection of MPO was performed on sections of formalin fixed, paraffin embedded blocks of swine lung. Antigen retrieval was performed using Proteinase K (DAKO, Carpenteria Calif.) for 30 minutes. Polyclonal rabbit, anti-human MPO (DAKO, Carpenteria Calif.) was used at a ready to use dilution and incubated at room temperature for 30 minutes. Envision, anti-rabbit (DAKO, Carpenteria Calif.) was applied as a secondary antibody for 30 minutes at room temperature. The chromogen applied was 3,3′ Diaminobenzidine (DAKO, Carpenteria, Calif.) for 10 minutes. The sections were counterstained with Hematoxylin (DAKO, Carpenteria, Calif.). External negative control was processed identically as with MPO but the primary antibody was substituted with normal rabbit serum. […] Cells with appropriate nuclear morphology and the presence of light to intensely reactive granules were counted; 5 random 40× fields were assessed.
Immunohistochemical detection of MPO was performed on sections of formalin fixed, paraffin embedded blocks of lung tissue. […] Polyclonal rabbit, anti-human MPO (DAKO, Carpenteria Calif.) was used at a ready to use dilution and incubated at room temperature for 30 minutes. […] Cells with appropriate nuclear morphology and the presence of light to intensely reactive granules were counted; 5 random 40× fields were assessed.

[3] = tested on: central lymphocytes (CD3+); assay: CD3 immunohistochemistry of mesenteric lymph node and spleen at necropsy (ACIS); assay type: in vivo, Yorkshire (Sus scrofa domestica) swine; details: FTY720 0.3 mg/kg; both mesenteric lymph node and spleen at necropsy
Experimental: Immunohistochemical detection of CD3 was performed on sections of formalin fixed, paraffin embedded blocks of swine lymph node and spleen. Antigen retrieval was performed using Trilogy (Cell Marque, Rocklin, Calif.) for 30 minutes. Rat, anti-human CD3, monoclonal antibody (AbD Serotec, Raleigh, N.C.) was used at a dilution of 1:50 and incubated overnight at 4 C. Biotinylated goat anti-rat IgG specific polyclonal antibody (BD Biosciences, San Jose, Calif.) was applied as a secondary antibody at a 1:100 dilution for 30 minutes at room temperature. The chromogen applied was 3, 3′ Diaminobenzidine (DAKO, Carpenteria, Calif.) for 10 minutes. The sections were counterstained with Hematoxylin (DAKO, Carpenteria, Calif.). External negative controls were processed identically as CD3 but the primary antibody was substituted with normal rat serum. […] An Automated Cellular Imaging System (ACIS) was used to quantify the CD3 immunohistochemistry staining. By using the ACIS system, CD3 immunohistochemical staining could be specifically quantitated by determining how much brown (positive CD3 immunohistochemical reaction) was in the image compared to the amount of blue (hematoxylin nuclear counterstain).
Tissue slides were deparaffinized using xylene followed by graded baths of ethanol. […] An Automated Cellular Imaging System (ACIS) was used to quantify the CD3 immunohistochemistry staining. […]

[4] = tested on: experimental hemorrhagic shock induced by porcine liver injury; assay: Liver injury hemorrhagic shock model: survival, blood loss, hemodynamics; assay type: in vivo, Yorkshire (Sus scrofa domestica) swine; details: FTY720 0.3 mg/kg 15 min after liver injury
Experimental: Male and female 3-12 month Yorkshire (Sus scrofa domestica) swine weighing 25-35 kg were acquired from ABI farms (Donsboro, Pa.). Feed was withheld 12 hours before surgery. Prior to surgery, animals were sedated and anesthesia induced with intramuscular ketamine hydrochloride (12-20 mg/kg of weight) and xylazine (2.2 mg/kg of weight) as well as atropine sulfate (0.05 mg/kg of weight) to decrease tracheal secretions. Mask ventilation with Isoflurane (5.0%) was used to facilitate endotracheal intubation. Pigs were ventilated (Ohmeda 7800 series ventilator, Datex, Madison, Wis.) at 12-15 breaths/min and tidal volume 10 mL/kg. Anesthesia was maintained with Isoflurane (1.5-2.5%) in 21-25% O2.
Following adequate anesthesia the right external and internal jugular veins and carotid artery were isolated. A 9Fr dual-lumen, tunneled Hickman catheter was placed in the external jugular vein for drug infusion and blood collection during the survival period. […] Rectal temperature was monitored continuously. […]
All animal groups underwent a standardized liver injury and resuscitation protocol. […] Bleeding was spontaneous and removed continually via suction and quantified by weight. […]
After a total of 2 hours, the pre-hospital phase was completed and hospital arrival was simulated. […] The abdomen was reopened, residual blood suctioned, sponges collected, and blood loss quantified by weight. […]

CCCCCCCCc1ccc(CCC(N)(CO)CO)cc1 [FTY720]
adhesion molecules expression (renal transplant IRI): no change | intragraft neutrophil infiltration (renal transplant IRI): reduced | renal function (renal transplant IRI): improved renal function | effect on IRI (IRI): ameliorate IRI | BCL-2 transcript expression in liver vs control [1]: up-regulated | FAS transcript expression in liver vs control [1]: down regulated | HSP70 transcript expression in liver vs control [1]: down-regulated | INOS transcript expression in liver vs control [1]: down-regulated | NFκB transcript expression in liver vs control [1]: down-regulated | VCAM transcript expression in liver vs control [1]: down-regulated | peripheral neutrophil response vs control (peripheral neutrophils): attenuated | lung tissue neutrophils vs control [2]: significantly decreased | central lymphocyte sequestration (CD3 staining) vs control [3]: significant central lymphocyte sequestration | reperfusion period survival vs control [4]: statistically improved | overall survival vs control ([4]; 72 hours): improved compared to control although not statistically significant
